Source: patent publication US5674905A, “Bicyclooctane and bicycloheptane derivatives” (James Black Foundation Limited, priority 1992, dated 1997)

What was measured:
CCKA = target: T1, CCKA (Cavia porcellus, UniProt Q63931); assay: CCKA binding assay in guinea-pig pancreas membranes ([125I]-CCK8(S)); conditions: 150 minutes at 21±3°, 0.375 μM PD134,308, read-out: CCKA pKi (converted)
T1 construct: The pancreatata were removed from male guinea-pigs (200-300 g; Dunkin Hartley); from tissue; host or cells: pancreas membranes of male Dunkin Hartley guinea-pigs
T1 sequence (Q63931 1-430): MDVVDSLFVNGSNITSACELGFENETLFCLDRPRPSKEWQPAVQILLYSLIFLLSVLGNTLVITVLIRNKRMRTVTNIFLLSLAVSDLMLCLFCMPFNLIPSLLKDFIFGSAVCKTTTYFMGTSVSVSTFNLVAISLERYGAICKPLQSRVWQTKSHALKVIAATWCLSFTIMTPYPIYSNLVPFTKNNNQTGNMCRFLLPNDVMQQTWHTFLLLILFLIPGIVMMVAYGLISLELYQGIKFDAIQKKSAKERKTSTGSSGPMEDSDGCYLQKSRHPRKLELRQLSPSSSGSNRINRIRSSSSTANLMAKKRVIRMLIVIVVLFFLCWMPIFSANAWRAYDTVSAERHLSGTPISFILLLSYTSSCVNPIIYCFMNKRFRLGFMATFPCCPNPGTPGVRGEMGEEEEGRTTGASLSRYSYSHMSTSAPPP
Procedure: The compounds of the examples were also tested in a CCKA binding assay as follows:
The pancreatata were removed from male guinea-pigs (200-300 g; Dunkin Hartley) and placed in ice-cold HEPES buffer (pH 7.2 @ 21±3°). The pancreatata were homogenised in 40 ml ice-cold HEPES buffer using a polytron (Brinkmann, PT10, setting 10) 4×1 second. The homogenate was centrifuged at 39,800 g for 15 min at 4°. The supernatant was discarded and the pellet re-suspended using a Teflon-in-glass homogeniser in 20 volumes of fresh buffer and re-centrifuged as above. The final pellet was re-suspended using a Teflon-in-glass homogeniser to a tissue concentration of 1 mg.ml^-1 (original wet weight), and filtered through 500 μm pore-size Nytex mesh.
The membranes (400 μl; containing 0.375 μM PD134,308) are incubated for 150 minutes at 21±3° in a final volume of 0.5 ml with HEPES buffer containing [^125 I]-CCK8 (S)(50 μl; pM) and competing compound. Total and non-specific binding of [^125 I]-CCK8 (S) are defined using 50 μl of buffer and 50 μl of 100 nM L-364,718 respectively. The assay is terminated by rapid filtration through pre-soaked Whatman GF/B filters using a Brandell Cell Harvester. The filters were washed (3×3 ml) with ice-cold 50 mM Tris HCl (pH 7.4 at 4°) and bound radioactivity is determined by counting (1 min) in a gamma counter.

CCKB receptor = target: T2, CCKB receptor (Mus musculus, UniProt P56481); assay: radioligand binding assay at the CCKB receptor in mouse cortical membranes ([125I]-CCK8S); conditions: 150 min at 21±3°; for Ki: read-out: CCKB pKi (converted)
T2 construct: The cortex was dissected, weighed and homogenised in 40 ml ice-cold buffer; from tissue; host or cells: cerebral cortex membranes of male CD1 mice (Charles River)
T2 sequence (P56481 1-453): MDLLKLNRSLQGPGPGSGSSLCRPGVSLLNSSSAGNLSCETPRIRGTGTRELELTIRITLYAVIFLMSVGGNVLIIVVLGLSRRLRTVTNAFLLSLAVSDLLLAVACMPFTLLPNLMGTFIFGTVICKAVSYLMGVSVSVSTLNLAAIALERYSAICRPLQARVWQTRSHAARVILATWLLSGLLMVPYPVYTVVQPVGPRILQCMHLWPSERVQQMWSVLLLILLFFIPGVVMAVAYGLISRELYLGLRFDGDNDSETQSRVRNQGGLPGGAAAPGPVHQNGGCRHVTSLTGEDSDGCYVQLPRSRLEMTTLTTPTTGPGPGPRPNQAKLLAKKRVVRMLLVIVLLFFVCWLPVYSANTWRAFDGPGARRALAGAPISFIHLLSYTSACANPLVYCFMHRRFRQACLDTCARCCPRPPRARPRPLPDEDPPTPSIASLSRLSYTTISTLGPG
Procedure: The compounds of the examples were tested for binding at the CCKB receptor in mouse cortical membranes by means of a radioligand binding assay. The procedure was as follows:
The whole brains from male mice (CD1 22-25 g; Charles River) were removed and placed in ice-cold buffer (pH7.2 @ 21±3 °) of the following composition (mM); 10 HEPES, 130 NaCl, 4.7 KCl, 5 MgCl2, 1 EDTA and containing 0.25 g.1^-1 bacitracin. The cortex was dissected, weighed and homogenised in 40 ml ice-cold buffer using a Teflon-in-glass homogeniser. The homogenate was centrifuged at 39,800 g for 20 min at @ 4°, the supernatant discarded and the pellet resuspended by homogenisation in fresh buffer. The homogenate was recentrifuged (39,800 g; 20 min @4°) and the final pellet was resuspended in HEPES buffer to give a tissue concentration of 2 mg.ml^-1 (original wet weight).
The membranes ([…]) were incubated for 150 min at 21±3° in a final volume of 0.5 ml with HEPES buffer containing [^125 I]-CCK8S (0.05 ml; 200 pM NEN 2200 Ci.mmol^-1) and competing compound. Total and non-specific binding of [^125 I]-CCK8S were defined using 0.05 ml of buffer and 0.05 ml of […] L-365,260, respectively. The assay was terminated by rapid filtration through pre-soaked Whatman GF/B filters using a Brandell Cell harvester. The filters were washed (3×3 ml) with ice-cold 50 mM Tris-HC1 (pH7.4 @ 4° C.) and bound radioactivity determined by counting (1 min.) in a gamma-counter.

gastrin receptors = target: T3, gastrin receptors (Rattus norvegicus, UniProt P30553); assay: gastrin antagonist activity in an immature rat stomach assay (pentagastrin-stimulated acid secretion); conditions: isolated immature rat stomach, cumulative pentagastrin dose-response curves; for Kb: read-out: Gastrin pKB (converted)
T3 construct: from tissue; host or cells: isolated perfused whole stomach of immature rats (33-50 g, ca. 21 days old)
T3 sequence (P30553 1-452): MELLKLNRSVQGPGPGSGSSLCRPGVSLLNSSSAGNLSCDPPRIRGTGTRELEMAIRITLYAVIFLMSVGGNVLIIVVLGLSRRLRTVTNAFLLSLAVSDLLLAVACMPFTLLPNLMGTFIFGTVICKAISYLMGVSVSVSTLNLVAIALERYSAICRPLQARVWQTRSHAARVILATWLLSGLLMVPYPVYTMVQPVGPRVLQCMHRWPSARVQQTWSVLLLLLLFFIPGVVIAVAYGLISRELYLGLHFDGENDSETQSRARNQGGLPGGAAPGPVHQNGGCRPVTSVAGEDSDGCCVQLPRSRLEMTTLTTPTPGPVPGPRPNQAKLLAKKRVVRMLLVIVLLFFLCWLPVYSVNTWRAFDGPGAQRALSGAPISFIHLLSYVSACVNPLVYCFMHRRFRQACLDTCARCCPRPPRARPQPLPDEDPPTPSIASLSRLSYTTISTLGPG
Procedure: The compounds of the examples were also tested for gastrin antagonist activity in an immature rat stomach assay. The procedure was as follows:
The oesophagus of immature rats (33-50 g, ca. 21 days old) was ligated at the level of the cardiac sphincter and the duodenal sphincter was cannulated. The stomach was excised and flushed with ca. 1 ml of unbuffered physiological saline solution. The fundus was punctured and cannulated. A further 4-5 ml of unbuffered solution was flushed through the stomach to ensure the preparation was not leaking. The stomach was lowered into a jacketed organ bath containing 40 ml of buffered solution containing 3×10^-8 M 5-methyl-furmethide, maintained at 37° and gassed vigorously with 95% O2 /5% CO2. The stomach was continuously perfused at a rate of 1 ml min^-1 with unbuffered solution gassed with 100% O2 with the perfusate passing over an internally referenced pH-electrode fixed 12 cm above the stomach.
After 120 min of stabilisation the drugs were added directly to the serosal solution in the organ bath and after a further 60 min cumulative pentagastrin dose-response curves were started. Changes in acid secretion were monitored and the curves analysed according to Black et. al., Br. J. Pharmacol., 1985, 86, 581.

| Ki (CCKA) [µM] | Ki (CCKB receptor) [µM] | Kb (gastrin receptors) [µM] | Gastrin pKB (gastrin receptors; 60 min) | CCKB pKi (CCKB receptor) | Compound |
| --- | --- | --- | --- | --- | --- |
| 7.94 | 6.31 | – | – | – | O=C1CC2c3ccccc3C1C(C(=O)N1CCC[C@@H]1C(=O)O)C2C(=O)NCC12CC3CC(CC(C3)C1)C2 (single isomer, unassigned) [Example 34, endo-cis-7-(2-R-carboxy-pyrrolidinocarbonyl)-8-(1-adamantylmethylaminocarbonyl)-2-oxo-5,6-benzobicyclo[2.2.2]octane] |
| – | 2 | 1.58 | – | – | O=C(NCC12CC3CC(CC(C3)C1)C2)C1C2C=CC(c3ccccc32)C1C(=O)N1CCC[C@@H]1C(=O)O (stereo partly drawn) [Example 10, endo-cis-7-(2-R-carboxy-pyrrolidinocarbonyl)-8-(1-adamantylmethylaminocarbonyl)-5,6-benzobicyclo[2.2.2]oct-2-ene] |
| – | 3.16 | 1.26 | – | – | O=C(NCC12CC3CC(CC(C3)C1)C2)C1C2C=CC(c3ccccc32)C1C(=O)N1CCC[C@H]1C(=O)O (stereo partly drawn) [Example 26, endo-cis-7-(2-S-carboxy-pyrrolidinocarbonyl)-8-(1-adamantylmethylaminocarbonyl)-5,6-benzo-bicyclo[2.2.2]oct-2-ene] |
| – | – | – | 6.5 | 6.2 | O=C(NCC12CC3CC(CC(C3)C1)C2)C1C2C=CC(c3ccccc32)C1C(=O)N1CCC[C@H]1C(=O)O (stereo partly drawn) [Example 27, exo-cis-7-(2-S-carboxy-pyrrolidinocarbonyl)-8-(1-adamantylmethylaminocarbonyl)-5,6-benzo-bicyclo[2.2.2]oct-2-ene] |
| – | 2.51 | 2 | – | – | O=C(NCC12CC3CC(CC(C3)C1)C2)C1C2C=CC(c3ccccc32)C1C(=O)N1C[C@H](O)C[C@@H]1C(=O)O (stereo partly drawn) [Example 29, exo-cis-7-(2-R-carboxy-4-R-hydroxy-pyrrolidinocarbonyl)-8-(1-adamantylmethylaminocarbonyl)-5,6-benzo-bicyclo[2.2.2]oct-2-ene] |
| – | 0.501 | 0.398 | – | – | COC(=O)[C@@H]1CCCN1C(=O)C1C2C=CC(c3ccccc32)C1C(=O)NCC12CC3CC(CC(C3)C1)C2 (stereo partly drawn) [Example 30, endo-cis-7-(2-S-methoxycarbonyl-pyrrolidinocarbonyl)-8-(1-adamantylmethylaminocarbonyl)-5,6-benzo-bicyclo[2.2.2]oct-2-ene] |

More lines, now with the values behind:

| Compound | Ki (CCKA) [µM] | Ki (CCKB receptor) [µM] | Kb (gastrin receptors) [µM] | Gastrin pKB (gastrin receptors; 60 min) | CCKB pKi (CCKB receptor) |
| --- | --- | --- | --- | --- | --- |
| COC(=O)[C@H](C)NC(=O)C1C2C(C)=C(C)C(c3ccccc32)C1C(=O)NCC12CC3CC(CC(C3)C1)C2 (stereo partly drawn) [Example 19, exo-cis-7-(1-S-Methoxycarbonyl-ethylaminocarbonyl)-8-(1-adamantylmethylaminocarbonyl)-2,3-dimethyl-5,6-benzobicyclo[2.2.2]oct-2-ene] | – | 0.398 | 1.58 | – | – |
| COC(=O)[C@H](C)NC(=O)C1C2CCC(c3ccccc32)C1C(=O)NCC12CC3CC(CC(C3)C1)C2 (stereo partly drawn) [Example 22, endo-cis-7-(1-S-Methoxycarbonyl-ethylaminocarbonyl)-8-(1-adamantylmethylaminocarbonyl)-2,3-benzobicyclo[2.2.2]octane] | – | 0.631 | 0.2 | – | – |
| COC(=O)[C@H](C)NC(=O)C1C2CCC(c3ccccc32)C1C(=O)NCC12CC3CC(CC(C3)C1)C2 (stereo partly drawn) [Example 23, exo-cis-7-(1-S-Methoxycarbonyl-ethylaminocarbonyl)-8-(1-adamantylmethylaminocarbonyl)-2,3-benzobicyclo[2.2.2]octane] | – | 0.398 | 0.316 | – | – |
| COC(=O)[C@H](C)NC(=O)C1C2C=CC(CC2)C1C(=O)NCC12CC3CC(CC(C3)C1)C2 (stereo partly drawn) [Example 24, endo-cis-2-(1-S-Methoxycarbonyl-ethylaminocarbonyl)-3-(1-adamantylmethylaminocarbonyl)-bicyclo[2.2.2]oct-5-ene] | – | 10 | 1.26 | – | – |
| O=C(O)c1cc(NC(=O)[C@H](Cc2ccccc2)NC(=O)C2C3C=CC(c4ccccc43)C2C(=O)NCC23CC4CC(CC(C4)C2)C3)cc(C(=O)O)c1 (stereo partly drawn) [Example 60, exo-cis-7-(1S-(3,5-dicarboxyphenylaminocarbonyl)-2-phenyl-ethylaminocarbonyl)-8-(1-adamantylmethylaminocarbonyl)-5,6-benzobicyclo[2.2.2]oct-2-ene] | – | 0.316 | 0.0501 | – | – |
| O=C(O)c1cc(NC(=O)[C@H](Cc2ccccc2)NC(=O)C2C3CCC(c4ccccc43)C2C(=O)NCC23CC4CC(CC(C4)C2)C3)cc(C(=O)O)c1 (stereo partly drawn) [Example 61, exo-cis-7-(1S-(3,5-dicarboxyphenylaminocarbonyl)-2-phenyl-ethylaminocarbonyl)-8-(1-adamantylmethylaminocarbonyl)-2,3-benzobicyclo[2.2.2]octane] | – | 1 | 0.251 | – | – |
